We go through 16 molecules from PubChem BioAssay (NCI).

Where “and” joins values, the source holds several entries; their conditions need not be identical. Identical values can stand only once.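 Five compound concentrations were applied to cells in 96-well plates for 48 hours; endpoints were derived by simple linear interpolation of the resulting dose-response curve. GI50 marks 50% less growth. At the TGI there is no net growth.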 Where only a bound is given, the exact number is not on record here.

Common to all, as to assay: growth of human tumour cells (NCI), 48 h
The subject of assay [1] is ACHN renal.
Assay [2] relates to U251 CNS.
Assay [3] concerns HOP-92 NSCLC.
Assay [4] has as its system NCI-H23 lung.
Assay [5] relates to SF-295 CNS.
In assay [6] the test system is OVCAR-5 ovarian.
Assay [7] deals with OVCAR-8 ovarian.
The subject of assay [8] is SK-OV-3 ovarian.
The subject of assay [9] is MALME-3M melanoma.
Assay [10] has as its system MDA-MB-231 breast.

With `Oc1ccc2ccccc2c1CCc1c(O)ccc2ccccc12`, the TGI in assay [1] was 30 µM; in assay [2] it was 26 µM; in assay [3], 24.7 µM; in assay [4] it was 26.1 µM; in assay [5], 28.7 µM; in assay [6] it was 27.2 µM. Moreover, the TGI in assay [7] came out at 27.6 µM; in assay [8], 29.4 µM; in assay [9], 26.9 µM; in [10], 27.5 µM.

With `COc1cc2c(Oc3ccc(NC(=O)C4(C(=O)Nc5ccc(F)cc5)CC4)cc3F)ccnc2cc1OCCCN1CCOCC1`, the GI50 in [1] was 0.558 µM and 0.702 µM; in [2], 1.42 µM; in assay [3], 0.243 µM and 0.0433 µM; in assay [4], 0.383 µM and 0.511 µM; in assay [5], 0.0519 µM and 0.0663 µM; in assay [6], 0.885 µM and 1.35 µM. Further, the GI50 in assay [7] is 1.42 µM and 2.08 µM; in assay [8] it was 1.81 µM and 1.88 µM; in [9], 0.635 µM and 0.571 µM; in assay [10], 1.33 µM and 1.28 µM. Also, the TGI in assay [1] was 2.33 µM and 3.27 µM; in [2], 3.32 µM; in [3] it was 1.65 µM and 0.991 µM; in assay [4], 2.41 µM and > 10 µM; in [5], 1.26 µM and 1.49 µM; in assay [6], 2.7 µM and > 8.7 µM. The TGI in assay [7] is 4 µM and > 10 µM; in [8] it was 3.94 µM and 5.53 µM; in [9], 2.51 µM and 2.05 µM; in [10], 2.72 µM and 2.74 µM.

As for `CC(=O)N[C@H](C)[C@@H](O)[C@@H](C)[C@@H]1OC(=O)/C=C/C=C(C)\C=C\[C@]2(C)C[C@@H](NS(C)(=O)=O)C=C[C@@H]2/C=C(C)/C=C/[C@H]1C`, the GI50 was 0.0125 µM in assay [1]; 0.00368 µM and 0.00435 µM in [2]; 0.00126 µM and 0.00435 µM in [3]; 0.0493 µM in assay [4]; 0.00244 µM and 0.00435 µM in [5]; above 43.5 µM in assay [6]. Further, the GI50 is 0.017 µM in [7]; 0.00446 µM and 0.00599 µM in assay [8]; 0.0868 µM and 0.0628 µM in assay [9]; 0.00125 µM and 0.0046 µM in [10]. Moreover, the TGI was above 43.5 µM in assay [1]; above 43.5 µM in assay [2]; 0.0297 µM and 0.0256 µM in assay [3]; above 43.5 µM in assay [4]; above 43.5 µM in assay [6]; above 43.5 µM in assay [7]. For the same molecule, the TGI in assay [8] was 0.0397 µM; in [9], above 43.5 µM.

Consider `C[C@H]1CCC/C=C/C2CC(OC(=O)CN(C)C)CC2C(OC(=O)CN(C)C)/C=C/C(=O)O1` (stereo partly specified), for which the GI50 is 0.398 µM in assay [1]; 0.861 µM in assay [2]; 1.69 µM in assay [3]; 0.359 µM in [4]; 1.11 µM in assay [5]; 0.44 µM in assay [6]. Moreover, the GI50 in assay [7] was 0.308 µM; in assay [8] it was 0.237 µM; in assay [9] it was 0.171 µM; in assay [10], 0.148 µM. Further, the TGI in [1] was found to be 11.9 µM; in assay [2], 46.8 µM; in assay [3] it was 12.5 µM; in assay [4], 1.92 µM; in [5], 37.2 µM; in assay [6], 4.05 µM. Also, the results for the TGI in [7], in [9] and in assay [10] were above 22.9 µM, 0.371 µM and 0.806 µM, respectively.

As for `C[C@@H]1CC[C@H]2[C@@H](C)C(O)O[C@@H]3O[C@]4(C)CC[C@@H]1[C@]32OO4` (stereo partly specified), the GI50 is 1.26 µM in assay [1]; 0.532 µM in assay [2]; 0.716 µM in assay [3]; 0.442 µM in assay [4]; 0.625 µM in assay [5]; 0.735 µM in [6]. In addition, the GI50 in assay [7] was 0.389 µM; in assay [8] it was 11.8 µM; in assay [9] it was 1.54 µM; in [10] it was 6.16 µM. Moreover, the TGI is 13 µM in [1]; 16.6 µM in assay [2]; 7.05 µM in [3]; 10.7 µM in assay [4]; 35.4 µM in assay [5]; 39.4 µM in assay [6]. Moreover, the TGI in assay [7] is 12.7 µM; in [8] it was above 60.3 µM; in [9] it was above 66.1 µM; in [10], above 56.8 µM.

As for `O=C(O)C1C2C=CC(O2)C1C(=O)NCc1cccnc1` (stereo unspecified), the TGI in assay [1], in [2], in assay [3], in assay [4], in assay [5] and in assay [6] was above 100 µM each time. Also, the TGI in [7], in assay [8], in assay [9] and in assay [10] was above 100 µM throughout.

`C[C@@H](Nc1nc(N[C@H](C)C(F)(F)F)nc(-c2cccc(Cl)n2)n1)C(F)(F)F`: the GI50 in assay [1] is 36.4 µM; in assay [2], 20.8 µM; in assay [3] it was 10.1 µM; in assay [4], 54 µM; in assay [5], 35.2 µM; in [6] it was above 100 µM. The GI50 in [7] is 31.3 µM; in assay [8], 37.6 µM; in assay [9], 60.2 µM; in assay [10] it was 26.8 µM. Moreover, the TGI was above 100 µM in [1]; 54 µM in [2]; 63.6 µM in assay [3]; above 100 µM in assay [4]; above 100 µM in [5]; above 100 µM in [6]. The TGI in [7], in [8], in assay [9] and in [10] was above 100 µM each time.

Consider `CC/C=C\C[C@H]1C/C=C2/C(=O)C=C[C@H]2C/C=C\CCCC(=O)O1`, for which the GI50 in assay [1] is 1.39 µM; in assay [2], 1.95 µM; in assay [3] it was 2.53 µM; in assay [4], 2.15 µM; in [5], 2.62 µM; in [6], 3.99 µM. The GI50 is 2 µM in [7], 5.67 µM in assay [8], 7.81 µM in assay [9] and 3.23 µM in assay [10]. The TGI in assay [1] is 3.97 µM; in assay [2], 7.09 µM; in assay [3] it was 10.1 µM; in assay [4] it was 9.92 µM; in assay [5], 9.33 µM; in assay [6], 16.8 µM. In addition, the TGI in assay [7] was 11.7 µM; in [8] it was 13.1 µM; in [9] it was 17.4 µM; in assay [10] it was 14.8 µM.

As for `Cc1cc(F)c(C(=O)Nc2cccc(-c3nncn3C(C)C)n2)cc1-n1cnc(C2CC2)c1`, the GI50 in assay [1] was 10.4 µM; in assay [2], 17.1 µM; in [3] it was 8.23 µM; in assay [4], 12 µM; in assay [5], 13.3 µM; in assay [6] it was 19.9 µM. Also, the GI50 is 18.3 µM in [7], 24.5 µM in [8], 23.3 µM in [9] and 18.1 µM in assay [10]. The TGI in assay [1] was 27.7 µM; in assay [2], above 100 µM; in assay [3], above 100 µM; in assay [4], 46.6 µM; in assay [5], 80.9 µM; in [6], above 100 µM. For the same molecule, the TGI was 68 µM in [7], above 100 µM in [8], 72.1 µM in [9] and 91.5 µM in assay [10].

In the case of `CNC(=O)c1cc(Oc2ccc3nc(NC(=O)Nc4ccc(CN5CCOCC5)c(C(F)(F)F)c4)sc3c2)ccn1`, the GI50 is 1.68 µM in assay [1]; 1.77 µM in assay [2]; 1.44 µM in assay [3]; 1.7 µM in [4]; 1.9 µM in assay [5]; 2.44 µM in assay [6]. Moreover, the GI50 in [7] is 2.63 µM; in assay [8] it was 2.18 µM; in assay [9], 1.44 µM; in assay [10] it was 2.14 µM. Also, the TGI in assay [1] is 4.21 µM; in assay [2], 3.54 µM; in [3], 3.64 µM; in assay [4], 4.22 µM; in [5], 4.73 µM; in [6] it was 6.9 µM. For the same molecule, the TGI came to 7.71 µM in assay [7], 4.81 µM in assay [8], 3.98 µM in assay [9] and 5.8 µM in assay [10].

With `CCCCCC/C=C/C#CCCCCCCCC(=O)O`, the TGI in assay [1], in assay [2], in [3], in [4], in assay [5] and in assay [6] was above 100 µM in each case. For the same molecule, the TGI in [7], in assay [8], in assay [9] and in [10] was above 100 µM in each case.

As to `CC1(C)OB(c2ccc(N(CCOS(C)(=O)=O)CCOS(C)(=O)=O)cc2)OC1(C)C`, the GI50 in assay [1] is 3 µM; in [2] it was 8.66 µM; in assay [3], 10.2 µM; in assay [4], 6.88 µM; in assay [5] it was 12.9 µM; in assay [6], 25.4 µM. Moreover, the GI50 is 21.7 µM in [7], 34.3 µM in assay [8], 12.9 µM in [9] and above 43.5 µM in [10]. In addition, the TGI in assay [1] is 14.2 µM; in [2] it was 34.7 µM; in [3], 48.6 µM; in assay [4] it was 30.4 µM; in [5] it was above 55 µM; in [6], 48.3 µM. Also, the TGI in assay [7] was above 92.3 µM; in [8], above 100 µM; in assay [9], 46.1 µM; in assay [10], above 65.2 µM.

On to `C[C@@H](C1CC[C@H]2[C@@H]3[C@@H]4O[C@@H]4[C@@]4(O)CC=CC(=O)[C@]4(C)[C@H]3C[C@H](O)[C@]12C)[C@H]1C[C@]2(C)O[C@]2(C)C(=O)O1` (stereo partly specified), for which the TGI in [1], in [2], in [3], in [4], in [5] and in assay [6] was above 100 µM in each case. The TGI in [7], in assay [8], in assay [9] and in assay [10] was above 100 µM each time.

On to `Cc1cc(=O)oc2c(C3=NN(C=O)C(c4ccccc4)C3)c(O)ccc12` (stereo unspecified), for which the TGI in [1] was above 42.8 µM; in assay [2], above 100 µM; in assay [3] it was 74.5 µM; in assay [4], above 100 µM; in assay [5] it was above 31.1 µM; in assay [6], above 100 µM. The TGI was above 100 µM in assay [7], 48.2 µM in assay [8], above 85 µM in assay [9] and above 100 µM in assay [10].

For the molecule `COc1ccc2[nH]c(Cl)c(/C=C3/C(=O)Nc4ccccc43)c2c1`, the GI50 is 0.786 µM in assay [1]; 0.861 µM in assay [2]; 1.99 µM in [3]; 0.219 µM in assay [4]; 0.574 µM in assay [5]; 0.554 µM in assay [6]. In addition, the GI50 in assay [7] was 0.498 µM; in assay [8], 0.865 µM; in assay [9], 0.643 µM; in assay [10], below 0.0477 µM. The TGI in assay [1] was found to be 5.85 µM; in assay [2], 2.75 µM; in [3], 4.09 µM; in [4], 0.688 µM; in [5], 1.28 µM; in assay [6], 3.12 µM. For the same molecule, the TGI in [8] worked out at 16.9 µM; in assay [9], 2.26 µM; in assay [10], 2.95 µM.

For the molecule `O=C1/C(=C/c2cccnc2)SC(=S)N1Cc1ccco1`, the TGI in assay [1] is above 48.9 µM; in [2] it was 30.6 µM; in assay [3], above 43.1 µM; in assay [4], above 100 µM; in assay [5] it was above 100 µM; in assay [6] it was above 81.7 µM. For the same molecule, the TGI in [7] was above 48.5 µM; in assay [8], above 75.9 µM; in [9], above 43.5 µM; in assay [10] it was above 51.1 µM.
